In one assay the target is T1, Complex V (Homo sapiens, UniProt P00846+P05496+P06576+P25705).
T1 construct: tissue Analytical Biological Services, Inc; host or cells: human heart ventricle mitochondria (A10, A12); MRC5, Rho0-MRC5 and GM00028 fibroblasts (A12); normal and Rho0 human fibroblast mitochondria (A19)
Briefly: Complex V activity dipstick. The assay is classed as biochemical. The note with it: normal fibroblast Complex V (FIG. 30).

In assay [1] the test system is human mitochondrial F1/F0 ATPase (Complex V). As to the kind of experiment: ATPase activity of immunocaptured F1/F0 ATPase, 96-well. The assay is classed as biochemical. The protocol:
Solubilization. Samples were thawed and placed in 25 mM HEPES pH 7.5 (to dissociate F1F0/IF1 interactions) or 10 mM […] (Anatrace) pH 6.5 (to retain F1F0/IF1 interactions), containing 0.4% (w/v) […], and the protease inhibitors leupeptin (0.5 μg/ml), pepstatin (0.5 μg/ml) and PMSF (1 mM). Mitochondria were solubilized at 5 mg/ml and whole cells were solubilized at 2×10^7 cells/ml. Samples were mixed well and then kept on ice for 30 minutes with occasional agitation. Insoluble material was then removed by centrifugation at 16,000×g for 20 minutes at 4° C.
Immunocapture. Assays were run in 96-well plates (Falcon Probind™) using 100 μl/well. […] To control for non-specific adsorption of ATPase, a non-specific mouse monoclonal antibody was used as a null capture mAb. Wells were then loaded with solubilized test samples diluted in TBS with 2.5% BSA, incubated for 2 hours at room temperature and then washed 4 times with TBS.
ATPase activity. ATPase reaction buffer (25 mM HEPES pH 7.5 or 10 mM MOPS pH 6.5, with 25 mM KCl, 5 mM MgCl2, 5 mM KCN and 2 mM ATP) was added at 100 μl/well and incubated for 3 hours at 37° C. The reaction was stopped and free Pi generated by ATP hydrolysis was detected essentially as described by Walker et al. (Meth. Enzymol., 260: 163-190, 1995) by addition of 0.5% ammonium molybendate in 0.7 M H2SO4 (42 μl/well) followed by 10% ascorbic acid (4 μl/well). After incubation for 30 minutes at room temperature to allow color development, absorbance was measured at 690 nm.
IF1 Stripping Conditions. IF1 was dissociated from previously immunocaptured IF1/F1F0 complexes by exposure to IF1 stripping buffer (30 mM Tris-sulfate pH 8, 250 mM KCl, 2 mM EDTA, 75 mM sucrose) for 30 minutes at 37° C. (Van Raaij et al., Biochem. 35: 15618-15625, 1996). The wells were then washed with either a pH 7.5 wash buffer (TBS) or a pH 6.5 wash buffer (10 mM MOPS pH 6.5, 150 mM NaCl and 1 mM MgCl2), and ATPase activity measured at either pH 7.5 or pH 6.5 as described above.
IF1 Addition Conditions. Recombinant human IF1 was obtained by PCR-based amplification of the appropriate gene from a human heart CDNA library (Clontech), cloning into pET15b (Novagen), transformation of E. coli and overexpression and purification of the His-tagged protein on a Ni column by standard protocols (Novagen). Isolated protein was diluted in pH 6.5 wash buffer (as described above) containing 1 mM ATP and incubated with previously immunocaptured F1F0. The wells were then washed with pH 6.5 wash buffer and ATPase activity measured at pH 6.5 as described above.

One molecule from US20050153381A1, “Immunocapture of mitochondrial protein complexes” (priority 2002, published 2005) can be followed below.

Consider `CC[C@H]1/C=C/C=C/C[C@@H](C)[C@H](O)[C@@](C)(O)C(=O)[C@@H](C)[C@H](O)[C@@H](C)C(=O)[C@@H](C)[C@H](O)[C@@H](C)/C=C/C(=O)O[C@@H]2[C@H](C)[C@H](CC1)O[C@]1(CC[C@H](C)[C@H](C[C@@H](C)O)O1)[C@H]2C` [oligomycin], for which the “effect on Complex V activity dipstick signal” value on Complex V was “reduced signal”. In addition, the “oligomycin sensitivity of F1/F0 ATPase immunocaptured from Rho0 cell mitochondria” value in assay [1] (Rho0 fibroblasts, 1.5 μg/ml oligomycin (FIG. 8)) is given as “oligomycin insensitive”. In addition, the “oligomycin sensitivity of immunocaptured enzyme” value in assay [1] (cultured fibroblast extract, 1.5 μg/ml oligomycin (FIG. 7B)) is “more than 90%”. Moreover, the “inhibition of ATPase activity of immunocaptured human F1/F0 ATPase” value in assay [1] (human heart mitochondria, 1.5 μg/ml oligomycin (FIG. 5)) is “more than 90%”. For the same molecule, the figures for the “inhibition of captured F1/F0 ATPase” value in assay [1] (mAb 12F4AD8AF8 directly adsorbed to the plate) and in assay [1] (mAb 12F4AD8AF8 oriented on a layer of goat-anti-mouse IgG) were “could not be inhibited” and “completely inhibited”, respectively.
